Laboratory results from paper PMC4329189, “A SelB/EF-Tu/aIF2γ-like protein from Methanosarcina mazei in the GTP-bound form binds cysteinyl-tRNA^Cys” (Journal of Structural and Functional Genomics, 2015).

Target: T1, MM1309 (Methanosarcina mazei, UniProt Q8PXB3)
T1 construct: gene MM_1309; full length, 350 residues, N-terminal His tag from pET28c kept (tag residues visible in crystal), expressed in E. coli; SeMet-substituted protein for the GMPPNP and GDP crystals
T1 sequence (Q8PXB3 1-350): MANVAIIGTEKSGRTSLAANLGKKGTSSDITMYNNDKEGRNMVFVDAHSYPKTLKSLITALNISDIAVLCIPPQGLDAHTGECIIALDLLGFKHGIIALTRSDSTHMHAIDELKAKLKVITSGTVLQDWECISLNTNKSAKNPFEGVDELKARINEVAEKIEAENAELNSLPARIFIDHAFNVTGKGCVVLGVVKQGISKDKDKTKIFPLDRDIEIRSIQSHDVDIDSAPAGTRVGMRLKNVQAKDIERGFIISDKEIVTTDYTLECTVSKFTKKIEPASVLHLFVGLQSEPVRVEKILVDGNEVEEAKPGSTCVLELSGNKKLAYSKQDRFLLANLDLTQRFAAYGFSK
Assay: isothermal titration calorimetry
Type: binding

| SMILES | Kd [µM] |
| --- | --- |
| Nc1nc2c(ncn2[C@@H]2O[C@H](COP(=O)(O)OP(=O)(O)O)[C@@H](O)[C@H]2O)c(=O)[nH]1 [GDP] | 26.2 |
| Nc1nc2c(ncn2[C@@H]2O[C@H](COP(=O)(O)OP(=O)(O)NP(=O)(O)O)[C@@H](O)[C@H]2O)c(=O)[nH]1 [GMPPNP] | 222 |
| Nc1nc2c(ncn2[C@@H]2O[C@H](COP(=O)(O)OP(=O)(O)OP(=O)(O)O)[C@@H](O)[C@H]2O)c(=O)[nH]1 [GTP] | 0.43 |
